How the values were obtained:
[1] = system: hESC-derived gut organoid showing peristalsis-like movement; test: In vitro contractility of human gut organoids (motile); assay type: cell-based; conditions: 0.2 μM, aspect ratio from video; for frequency / rate of gut organoid contractile movement: days 80-90 in culture
Description: A single human embryonic stem cell (hESC)-derived gut organoid showing peristalsis-like movement (days 80-90 in culture) was treated with the peristaltic stimulator histamine (0.2 μM) and the cholinergic antagonist atropine sulfate (0.2 μM). Contractility responses were recorded using an inverted microscope. Image analysis software CL-Quant version 3.10 (Nikon Corporation) was used to visualize movements in the gut organoid. First, in each frame of the time-lapse images, the software was used to identify a specific region of the organoid. Second, the software fitted an ellipse to this region and calculated the ratio of the longest to shortest diameter to obtain an aspect ratio. Changes in the aspect ratios with time were plotted on the chart. Videos were recorded at 30 frames per second.

human gut organoids = test: In vitro β-Ala-Lys-AMCA uptake by human gut organoids; assay type: cell-based; conditions: 25 μM, 4 hours at 37° C., fluorescence
Description: Gut organoids grown in the differentiation induction medium 2 were washed with PBS and cultured in DMEM containing 25 μM fluorophore-conjugated dipeptide β-Ala-Lys-AMCA (Biotrend Chemicals) for 4 hours at 37° C. […] All sample images were recorded under standard conditions. For each concentration, 3 independent assays were performed.

Structure (SMILES): CN1[C@@H]2CC[C@H]1CC(OC(=O)C(CO)c1ccccc1)C2.CN1[C@@H]2CC[C@H]1CC(OC(=O)C(CO)c1ccccc1)C2.O=S(=O)(O)O (some centres unmarked) [atropine, atropine sulfate]
- contraction amplitude [1]: decreased
- frequency / rate of gut organoid contractile movement [1]: decreased

Structure (SMILES): Cc1c(CC(=O)NCCCC[C@H](NC(=O)CCN)C(=O)O)c(=O)oc2cc(N)ccc12 [β-Ala-Lys-AMCA, β-Ala-Lys-N(c)-7-amino-4-methylcoumarin-3-acetic acid]
- uptake (peptide absorption) of the fluorophore-conjugated dipeptide by gut organoids (human gut organoids): capable of uptake
- uptake (peptide absorption) of the fluorophore-conjugated dipeptide by gut organoids (human gut organoids; listed as β-Ala-Lys-N(c)-7-amino-4-methylcoumarin-3-acetic acid): showed peptide absorption

Structure (SMILES): NCCc1c[nH]cn1 [histamine]
- frequency / rate of gut organoid contractile movement [1]: increased
